Laboratory results from ChEMBL document CHEMBL5120905, “Examining the Role of the Linker in Bitopic N6-Substituted Adenosine Derivatives Acting as Biased Adenosine A1 Receptor Agonists” (J Med Chem, 2022).

How the values were obtained:
Type in all cases: functional, cell-based
Adenosine receptor A2a = Adenosine receptor A2a (Homo sapiens, UniProt P29274); test: Agonist activity at human A2A receptor expressed in Flp-In-CHO cells assessed as cAMP accumulation incubated for 30 mins by LANCE cAMP assay
Adenosine receptor A1 [1] = molecular target: T1, Adenosine receptor A1 (Homo sapiens, UniProt P30542); test: Agonist activity at human A1 receptor expressed in Flp-In-CHO cells assessed as inhibition of forskolin stimulated cAMP accumulation incubated for 30 mins by LANCE cAMP assay
T1 sequence (P30542 whole entry): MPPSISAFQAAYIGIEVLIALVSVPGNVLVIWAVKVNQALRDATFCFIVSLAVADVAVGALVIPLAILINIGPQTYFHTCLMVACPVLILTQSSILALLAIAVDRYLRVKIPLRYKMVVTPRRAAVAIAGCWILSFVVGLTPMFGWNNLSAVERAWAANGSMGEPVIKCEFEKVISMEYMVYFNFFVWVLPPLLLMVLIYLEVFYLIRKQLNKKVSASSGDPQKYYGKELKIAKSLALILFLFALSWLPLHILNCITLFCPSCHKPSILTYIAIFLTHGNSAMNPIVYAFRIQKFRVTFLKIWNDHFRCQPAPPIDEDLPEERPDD

Adenosine receptor A1 [2] = molecular target: T1, Adenosine receptor A1; test: Agonist activity at human A1 receptor expressed in Flp-In-CHO cells assessed as stimulation of calcium mobilization by calcium mobilization assay
Adenosine receptor A2b = molecular target: T2, Adenosine receptor A2b (Homo sapiens, UniProt P29275); test: Agonist activity at human A2B receptor expressed in Flp-In-CHO cells assessed as cAMP accumulation incubated for 10 mins in presence of forskolin by LANCE cAMP assay
T2 sequence (P29275 whole entry): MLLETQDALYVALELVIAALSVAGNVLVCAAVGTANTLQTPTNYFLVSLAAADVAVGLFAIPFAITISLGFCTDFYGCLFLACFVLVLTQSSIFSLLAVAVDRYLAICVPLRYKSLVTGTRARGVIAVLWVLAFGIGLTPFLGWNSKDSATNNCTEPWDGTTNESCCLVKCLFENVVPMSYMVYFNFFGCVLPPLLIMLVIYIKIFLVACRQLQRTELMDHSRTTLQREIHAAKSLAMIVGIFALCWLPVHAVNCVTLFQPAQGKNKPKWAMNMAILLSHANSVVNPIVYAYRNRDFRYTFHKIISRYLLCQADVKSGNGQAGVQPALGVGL

Chain of Adenosine receptor A2a (P29274 whole entry): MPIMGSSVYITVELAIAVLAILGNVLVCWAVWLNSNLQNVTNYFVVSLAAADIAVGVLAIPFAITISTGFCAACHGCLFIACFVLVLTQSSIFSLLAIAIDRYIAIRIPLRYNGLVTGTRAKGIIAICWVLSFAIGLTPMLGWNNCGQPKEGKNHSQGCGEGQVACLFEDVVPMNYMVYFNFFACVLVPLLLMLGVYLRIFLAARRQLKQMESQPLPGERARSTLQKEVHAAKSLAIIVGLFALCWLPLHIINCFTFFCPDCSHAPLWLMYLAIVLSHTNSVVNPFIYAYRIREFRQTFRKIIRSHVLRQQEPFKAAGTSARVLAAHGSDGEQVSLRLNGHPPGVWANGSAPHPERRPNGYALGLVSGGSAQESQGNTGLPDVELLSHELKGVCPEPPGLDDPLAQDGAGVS

EC50 (Adenosine receptor A2a) [nM] | EC50 (Adenosine receptor A1 [1]) [nM] | EC50 (Adenosine receptor A1 [2]) [nM] | EC50 (Adenosine receptor A2b) [nM] | SMILES
389 | – | – | – | Nc1sc(-c2ccc(C(=O)NCCCCCCNc3ncnc4c3ncn4[C@@H]3O[C@H](CO)[C@@H](O)[C@H]3O)cc2)c(-c2cccc(C(F)(F)F)c2)c1C(=O)c1ccccc1
363 | 550 | > 10000 | 52.5 | Nc1sc(-c2ccc(C(=O)NCCc3ccc(CCNc4ncnc5c4ncn5[C@@H]4O[C@H](CO)[C@@H](O)[C@H]4O)cc3)cc2)c(-c2cccc(C(F)(F)F)c2)c1C(=O)c1ccccc1
741 | – | – | – | Nc1sc(-c2ccc(C(=O)NCCC#Cc3ccc(Nc4ncnc5c4ncn5[C@@H]4O[C@H](CO)[C@@H](O)[C@H]4O)cc3)cc2)c(-c2cccc(C(F)(F)F)c2)c1C(=O)c1ccccc1
